System: ET (Huh-lucubineo-ET) cell line harboring I389luc-ubi-neo/NS3-3′/ET HCV replicon
Experiment: Replicon assay (HCV replicon, luciferase readout)
Assay type: cell-based
Conditions: Hepatitis C virus
Summary of the method: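 Compounds at 10-point 2-fold dilutions (overall 0.1 nM to […], 0.5% DMSO) were applied to ET cells carrying a luciferase-neo HCV replicon, seeded a day earlier. After 48-72 hours, luciferase-based % inhibition was fitted with a Hill equation for EC50, and parallel WST-1 readings gave TC50.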

Row | Compound | EC50
1 | CS(=O)(=O)NC1CN(C(=O)c2nc3c(C(F)(F)F)cc(-c4cccc(F)c4)cn3c2Cl)C1 [Compound 141, N-{1-[3-Chloro-6-(3-fluoro-phenyl)-8-trifluoromethyl-imidazo[1,2-a]pyridine-2-carbonyl]-azetidin-3-yl}-methanesulfonamide] | 0.476 µM
2 | CC(C)(C)C#CC1=CCN(C(=O)c2nc3c(C(F)(F)F)cc(-c4ccoc4)cn3c2Cl)CC1 [Compound 199, (3-Chloro-6-furan-3-yl-8-trifluoromethyl-imidazo[1,2-a]pyridin-2-yl)-[4-(3,3-dimethyl-but-1-ynyl)-3,6-dihydro-2H-pyridin-1-yl]-methanone] | > 50 µM
3 | CC(C)CC(N)C(=O)NCc1cn2cc(-c3ccoc3)cc(C(F)(F)F)c2n1 (stereo not drawn) [Compound 241, 2-Amino-4-methyl-pentanoic acid (6-furan-3-yl-8-trifluoromethyl-imidazo[1,2-a]pyridin-2-ylmethyl)-amide] | > 50 µM
4 | CC(NC(=O)c1cn2cc(-c3ccoc3)cc(C(F)(F)F)c2n1)C(=O)O (stereo not drawn) [Compound 265, 2-[(6-Furan-3-yl-8-trifluoromethyl-imidazo[1,2-a]pyridine-2-carbonyl)-amino]-propionic acid] | > 50 µM
5 | CC(=O)NC(Cc1ccccc1)C(=O)NCc1cn2cc(-c3ccoc3)cc(C(F)(F)F)c2n1 (stereo not drawn) [Compound 260, 2-Acetylamino-N-(6-furan-3-yl-8-trifluoromethyl-imidazo[1,2-a]pyridin-2-ylmethyl)-3-phenyl-propionamide] | > 50 µM
6 | COC(=O)C(NC(=O)c1cn2cc(-c3ccoc3)cc(C(F)(F)F)c2n1)C(C)O (stereo not drawn) [Compound 253, 2-[(6-Furan-3-yl-8-trifluoromethyl-imidazo[1,2-a]pyridine-2-carbonyl)-amino]-3-hydroxy-butyric acid methyl ester] | > 50 µM
7 | COC(=O)C(NC(=O)c1cn2cc(-c3ccoc3)cc(C(F)(F)F)c2n1)C(C)(C)C (stereo not drawn) [Compound 154, 2-[(6-Furan-3-yl-8-trifluoromethyl-imidazo[1,2-a]pyridine-2-carbonyl)-amino]-3,3-dimethyl-butyric acid methyl ester] | 27.7 µM
8 | CC(=O)NC(C(=O)NCc1cn2cc(-c3ccoc3)cc(C(F)(F)F)c2n1)C(C)C (stereo not drawn) [Compound 261, 2-Acetylamino-N-(6-furan-3-yl-8-trifluoromethyl-imidazo[1,2-a]pyridin-2-ylmethyl)-3-methyl-butyramide] | > 50 µM
9 | C=CC(=O)N[C@@H]1CCN(C(=O)c2nc3c(C(F)(F)F)cc(-c4ccoc4)cn3c2Cl)C1 [Compound 167, N-[1-(3-Chloro-6-furan-3-yl-8-trifluoromethyl-imidazo[1,2-a]pyridine-2-carbonyl)-pyrrolidin-3-yl]-acrylamide] | 1.68 µM
10 | O=C(NCCc1cn2cc(-c3ccoc3)cc(C(F)(F)F)c2n1)C1CC1 [Compound 275, Cyclopropanecarboxylic acid [2-(6-furan-3-yl-8-trifluoromethyl-imidazo[1,2-a]pyridin-2-yl)-ethyl]-amide] | > 50 µM
11 | O=C1CCCC2(CCN(C(=O)c3nc4c(C(F)(F)F)cc(-c5ccoc5)cn4c3Cl)CC2)N1 [Compound 324, 9-(3-Chloro-6-furan-3-yl-8-trifluoromethyl-imidazo[1,2-a]pyridine-2-carbonyl)-1,9-diaza-spiro[5.5]undecan-2-one] | > 50 µM
12 | O=C(c1nc2c(C(F)(F)F)cc(C3=CCNC3)cn2c1Cl)N1CC=C(c2ncccc2F)CC1 [Compound 121, [3-Chloro-6-(2,5-dihydro-1H-pyrrol-3-yl)-8-trifluoromethyl-imidazo[1,2-a]pyridin-2-yl]-(3-fluoro-3′,6′-dihydro-2′H-[2,4′]bipyridinyl-1′-yl)-methanone] | 2.54 µM
13 | O=C(Cc1cn2cc(-c3ccoc3)cc(C(F)(F)F)c2n1)NCc1ccccc1 [Compound 185, N-Benzyl-2-(6-furan-3-yl-8-trifluoromethyl-imidazo[1,2-a]pyridin-2-yl)-acetamide] | 4.8 µM
14 | CC(C)CCC1CCN(C(=O)c2nc3c(C(F)(F)F)cc(-c4ccoc4)cn3c2Cl)CC1 [Compound 225, (3-Chloro-6-furan-3-yl-8-trifluoromethyl-imidazo[1,2-a]pyridin-2-yl)-[4-(3-methyl-butyl)-piperidin-1-yl]-methanone] | 2.29 µM
15 | O=C(c1nc2c(C(F)(F)F)cc(-c3ccoc3)cn2c1Cl)N1CCC(c2ncccc2F)CC1 [Compound 219, (3-Chloro-6-furan-3-yl-8-trifluoromethyl-imidazo[1,2-a]pyridin-2-yl)-(3-fluoro-3′,4′,5′,6′-tetrahydro-2′H-[2,4′]bipyridinyl-1′-yl)-methanone] | 0.0651 µM
16 | O=C(Cc1cn2cc(-c3ccoc3)cc(C(F)(F)F)c2n1)N1CC=C(c2nccs2)CC1 [Compound 191, 2-(6-Furan-3-yl-8-trifluoromethyl-imidazo[1,2-a]pyridin-2-yl)-1-(4-thiazol-2-yl-3,6-dihydro-2H-pyridin-1-yl)-ethanone] | > 50 µM
17 | CC(C)(C)C(NC(=O)c1cn2cc(-c3ccoc3)cc(C(F)(F)F)c2n1)C(=O)O (stereo not drawn) [Compound 273, 2-[(6-Furan-3-yl-8-trifluoromethyl-imidazo[1,2-a]pyridine-2-carbonyl)-amino]-3,3-dimethyl-butyric acid] | > 50 µM
18 | O=C(c1nc2c(C(F)(F)F)cc(-c3ccoc3)cn2c1Cl)N1CCC(N2CCCC2)CC1 [Compound 195, (3-Chloro-6-furan-3-yl-8-trifluoromethyl-imidazo[1,2-a]pyridin-2-yl)-(4-pyrrolidin-1-yl-piperidin-1-yl)-methanone] | > 50 µM
19 | COC(=O)C(NC(=O)Cc1cn2cc(-c3ccoc3)cc(C(F)(F)F)c2n1)C(C)C (stereo not drawn) [Compound 310, 2-[2-(6-Furan-3-yl-8-trifluoromethyl-imidazo[1,2-a]pyridin-2-yl)-acetylamino]-3-methyl-butyric acid methyl ester] | > 50 µM
20 | NC(=O)[C@H](Cc1c[nH]c2ccccc12)NC(=O)Cc1cn2cc(-c3ccoc3)cc(C(F)(F)F)c2n1 [Compound 303, 2-[2-(6-Furan-3-yl-8-trifluoromethyl-imidazo[1,2-a]pyridin-2-yl)-acetylamino]-3-(1H-indol-3-yl)-propionamide] | > 50 µM

System: not given
Experiment: not given
Conditions: patients treated at currently recommended doses; cited from earlier work

Row | Compound | significant hemolysis, share of patients
21 | NC(=O)c1ncn([C@@H]2O[C@H](CO)[C@@H](O)[C@H]2O)n1 [Ribavirin, 1-P-D-ribofuranosyl-1H-1,2,-4-triazole-3-carboxamide] | 10-20%
